Values after ≈ are worked out from the molar mass of the structure shown. Counter-ions that a name gives are not always drawn.
Experiments:
Type in all cases: functional, organism-based
[1] = system: Mycolicibacterium smegmatis; assay: Antimycobacterial activity against Mycobacterium smegmatis grown in carbon-limited broth medium assessed as growth inhibition in mid-logarithmic phase by GFP-based fluorescence assay
[2] = system: Mycolicibacterium smegmatis; assay: Antimycobacterial activity against Mycobacterium smegmatis grown in nitrogen -limited broth medium assessed as growth inhibition in mid-logarithmic phase by spectrophotometry
[3] = system: Mycolicibacterium smegmatis; assay: Antimycobacterial activity against Mycobacterium smegmatis grown in Luria-Bertani broth medium assessed as growth inhibition in mid-logarithmic phase by spectrophotometry
[4] = system: Mycolicibacterium smegmatis; assay: Antimycobacterial activity against Mycobacterium smegmatis grown in Luria-Bertani broth medium assessed as growth inhibition in mid-logarithmic phase by GFP-based fluorescence assay
[5] = system: Mycolicibacterium smegmatis; assay: Antimycobacterial activity against Mycobacterium smegmatis grown in carbon-limited broth medium assessed as growth inhibition in mid-logarithmic phase by spectrophotometry
[6] = system: Mycolicibacterium smegmatis; assay: Antimycobacterial activity against Mycobacterium smegmatis grown in nitrogen -limited broth medium assessed as growth inhibition in mid-logarithmic phase by GFP-based fluorescence assay

Molecule	IC50 ([1]; Mycolicibacterium smegmatis) [µM]	MIC ([1]; Mycolicibacterium smegmatis) [µM]	IC50 ([2]; Mycolicibacterium smegmatis) [µM]	MIC ([2]; Mycolicibacterium smegmatis) [µM]	IC50 ([3]; Mycolicibacterium smegmatis) [µM]	MIC ([3]; Mycolicibacterium smegmatis) [µM]	IC50 ([4]; Mycolicibacterium smegmatis) [µM]	MIC ([4]; Mycolicibacterium smegmatis) [µM]	IC50 ([5]; Mycolicibacterium smegmatis) [µM]	MIC ([5]; Mycolicibacterium smegmatis) [µM]	IC50 ([6]; Mycolicibacterium smegmatis) [µM]	MIC ([6]; Mycolicibacterium smegmatis) [µM]	further results
O=S1(=O)N(CCN2CC=C(c3c[nH]c4cc(F)ccc34)CC2)c2cccc3c2N1CCC3	25.3	25 (≈ 11.3 µg/mL)	22.3	50 (≈ 22.6 µg/mL)	25.1	50 (≈ 22.6 µg/mL)	25.1	50 (≈ 22.6 µg/mL)	25.3	25 (≈ 11.3 µg/mL)	22.3	50 (≈ 22.6 µg/mL)	
Cc1cc(N)c2ccccc2[n+]1CCCCCCCCCCCCCC[n+]1c(C)cc(N)c2ccccc21	2.73	6.25	1.74	3.12	3.95	6.25	3.95	6.25	2.73	6.25	1.74	3.12	
CN(C)C(CCCCC[N+](C)(C)CCCN1C(=O)c2cccc3cccc(c23)C1=O)CCCN1C(=O)c2cccc3cccc(c23)C1=O (stereo unspecified)	11.7	50	6	25	8.15	50	8.15	50	11.7	50	6	25	
4-CHLOROMERCURIBENZOIC ACID													IC50 [1]: 7.65 µM; IC50 [2]: 6.33 µM; IC50 [3]: 7.07 µM; IC50 [4]: 7.07 µM; IC50 [5]: 7.65 µM; IC50 [6]: 6.33 µM
4-[sequence] ACID													MIC [1]: 6.25 µM; MIC [2]: 12.5 µM; MIC [3]: 25 µM; MIC [4]: 25 µM; MIC [5]: 6.25 µM; MIC [6]: 12.5 µM
Cc1c(C)c2c(c(C)c1O)CCC(C)(CN1CCN(c3cc(N4CCCC4)nc(N4CCCC4)n3)CC1)O2 (single isomer, unassigned)	> 50	50 (≈ 26 µg/mL)	34.2	50 (≈ 26 µg/mL)	> 50	50 (≈ 26 µg/mL)	> 50	50 (≈ 26 µg/mL)	> 50	50 (≈ 26 µg/mL)	34.2	50 (≈ 26 µg/mL)	
CC(C)(C)c1ccc(S(=O)(=O)/C=C/C#N)cc1 [BAY-11-7085]	2.58	6.25 (≈ 1.56 µg/mL)	6.22	12.5 (≈ 3.12 µg/mL)	30.6	50 (≈ 12.5 µg/mL)	30.6	50 (≈ 12.5 µg/mL)	2.58	6.25 (≈ 1.56 µg/mL)	6.22	12.5 (≈ 3.12 µg/mL)	
CNc1ccc2oc(C[C@H]3O[C@@]4(CC[C@H]3C)O[C@H]([C@H](C)C(=O)c3ccc[nH]3)[C@H](C)C[C@H]4C)nc2c1C(=O)O [CALCIMYCIN]	5.21	12.5 (≈ 6.55 µg/mL)	3.43	12.5 (≈ 6.55 µg/mL)	1.04	3.12 (≈ 1.64 µg/mL)	1.04	3.12 (≈ 1.64 µg/mL)	5.21	12.5 (≈ 6.55 µg/mL)	3.43	12.5 (≈ 6.55 µg/mL)	
Clc1ccc(C(c2ccc(Cl)cc2)[n+]2ccn(CC(OCc3ccc(Cl)cc3Cl)c3ccc(Cl)cc3Cl)c2)cc1 (stereo unspecified) [CALMIDAZOLIUM CHLORIDE]	13.8	50	7.02	12.5	13.2	12.5	13.2	12.5	13.8	50	7.02	12.5	
Clc1ccccc1C(c1ccccc1)(c1ccccc1)n1ccnc1 [CLOTRIMAZOLE]	18.2	50 (≈ 17.2 µg/mL)	12.2	50 (≈ 17.2 µg/mL)	6.54	12.5 (≈ 4.31 µg/mL)	6.54	12.5 (≈ 4.31 µg/mL)	18.2	50 (≈ 17.2 µg/mL)	12.2	50 (≈ 17.2 µg/mL)	
CN(C)[C@@H]1C(O)=C(C(N)=O)C(=O)[C@@]2(O)C(O)=C3C(=O)c4c(O)ccc(Cl)c4[C@@H](O)[C@H]3C[C@@H]12 [DEMECLOCYCLINE]	5.92	6.25 (≈ 2.91 µg/mL)	4.4	6.25 (≈ 2.91 µg/mL)	1.88	3.12 (≈ 1.45 µg/mL)	1.88	3.12 (≈ 1.45 µg/mL)	5.92	6.25 (≈ 2.91 µg/mL)	4.4	6.25 (≈ 2.91 µg/mL)	
c1ccc2c(c1)[I+]c1ccccc1-2 [DIPHENYLENEIODONIUM]	8.53	3.12	1.63	3.12	6.77	6.25	6.77	6.25	8.53	3.12	1.63	3.12	
C[C@H]1c2cccc(O)c2C(=O)C2=C(O)[C@]3(O)C(=O)C(C(N)=O)=C(O)[C@@H](N(C)C)[C@@H]3[C@@H](O)[C@@H]21 [DOXYCYCLINE]	2.98	3.12 (≈ 1.39 µg/mL)	1.95	3.12 (≈ 1.39 µg/mL)	0.76	1.56 (≈ 0.693 µg/mL)	0.76	1.56 (≈ 0.693 µg/mL)	2.98	3.12 (≈ 1.39 µg/mL)	1.95	3.12 (≈ 1.39 µg/mL)	
CC(=O)[C@]1(O)Cc2c(O)c3c(c(O)c2[C@@H](O[C@H]2C[C@H](N)[C@H](O)[C@H](C)O2)C1)C(=O)c1ccccc1C3=O [IDARUBICIN]	6.68	25 (≈ 12.4 µg/mL)	5.13	12.5 (≈ 6.22 µg/mL)	3.61	12.5 (≈ 6.22 µg/mL)	3.61	12.5 (≈ 6.22 µg/mL)	6.68	25 (≈ 12.4 µg/mL)	5.13	12.5 (≈ 6.22 µg/mL)	
CCn1cc(C(=O)O)c(=O)c2cc(F)c(N3CCNC(C)C3)c(F)c21 (stereo unspecified) [LOMEFLOXACIN]	4.88	6.25 (≈ 2.2 µg/mL)	1.44	6.25 (≈ 2.2 µg/mL)	4.33	12.5 (≈ 4.39 µg/mL)	4.33	12.5 (≈ 4.39 µg/mL)	4.88	6.25 (≈ 2.2 µg/mL)	1.44	6.25 (≈ 2.2 µg/mL)	
COc1ccccc1CNCCCCCCNCCCCCCCCNCCCCCCNCc1ccccc1OC [METHOCTRAMINE HYDROCHLORIDE]	6.88	12.5	7.45	12.5	15.9	12.5	15.9	12.5	6.88	12.5	7.45	12.5	
C[Se]C[C@H](N)C(=O)O [METHYLSELENOCYSTEINE]	2.19	12.5 (≈ 2.28 µg/mL)	0.6	12.5 (≈ 2.28 µg/mL)	> 50	> 50	> 50	> 50	2.19	12.5 (≈ 2.28 µg/mL)	0.6	12.5 (≈ 2.28 µg/mL)	
CN(C)c1ccc(O)c2c1C[C@H]1C[C@H]3[C@H](N(C)C)C(O)=C(C(N)=O)C(=O)[C@@]3(O)C(O)=C1C2=O [MINOCYCLINE]	5.02	12.5 (≈ 5.72 µg/mL)	7.23	12.5 (≈ 5.72 µg/mL)	6.77	12.5 (≈ 5.72 µg/mL)	6.77	12.5 (≈ 5.72 µg/mL)	5.02	12.5 (≈ 5.72 µg/mL)	7.23	12.5 (≈ 5.72 µg/mL)	
O=C1c2c(O)ccc(O)c2C(=O)c2c(NCCNCCO)ccc(NCCNCCO)c21 [MITOXANTRONE]	9.7	50 (≈ 22.2 µg/mL)	5.02	50 (≈ 22.2 µg/mL)	21.8	50 (≈ 22.2 µg/mL)	21.8	50 (≈ 22.2 µg/mL)	9.7	50 (≈ 22.2 µg/mL)	5.02	50 (≈ 22.2 µg/mL)	
O=C(Nc1ccc([N+](=O)[O-])cc1Cl)c1cc(Cl)ccc1O [NICLOSAMIDE]	3.31	6.25 (≈ 2.04 µg/mL)	4.73	6.25 (≈ 2.04 µg/mL)	6.85	12.5 (≈ 4.09 µg/mL)	6.85	12.5 (≈ 4.09 µg/mL)	3.31	6.25 (≈ 2.04 µg/mL)	4.73	6.25 (≈ 2.04 µg/mL)	
CC1COc2c(N3CCN(C)CC3)c(F)cc3c(=O)c(C(=O)O)cn1c23 (stereo unspecified) [OFLOXACIN]	3.13	6.25 (≈ 2.26 µg/mL)	1.73	6.25 (≈ 2.26 µg/mL)	2.03	3.12 (≈ 1.13 µg/mL)	2.03	3.12 (≈ 1.13 µg/mL)	3.13	6.25 (≈ 2.26 µg/mL)	1.73	6.25 (≈ 2.26 µg/mL)	
N=C(N)c1ccc(OCCCCCOc2ccc(C(=N)N)cc2)cc1 [PENTAMIDINE]	11.1	25 (≈ 8.51 µg/mL)	9.1	50 (≈ 17 µg/mL)	23.5	50 (≈ 17 µg/mL)	23.5	50 (≈ 17 µg/mL)	11.1	25 (≈ 8.51 µg/mL)	9.1	50 (≈ 17 µg/mL)	
c1cnc2c(c1)ccc1cccnc12 [PHENANTHROLINE]	4.99	12.5 (≈ 2.25 µg/mL)	5.76	12.5 (≈ 2.25 µg/mL)	41.6	50 (≈ 9.01 µg/mL)	41.6	50 (≈ 9.01 µg/mL)	4.99	12.5 (≈ 2.25 µg/mL)	5.76	12.5 (≈ 2.25 µg/mL)	
CN1CCN(CCCN2c3ccccc3Sc3ccc(C(F)(F)F)cc32)CC1 [TRIFLUOPERAZINE]	12.3	50 (≈ 20.4 µg/mL)	3.15	50 (≈ 20.4 µg/mL)	12.3	50 (≈ 20.4 µg/mL)	12.3	50 (≈ 20.4 µg/mL)	12.3	50 (≈ 20.4 µg/mL)	3.15	50 (≈ 20.4 µg/mL)	

From ChEMBL document CHEMBL1649296, “Modifying culture conditions in chemical library screening identifies alternative inhibitors of mycobacteria” (Antimicrob Agents Chemother, 2009)
